How the values were obtained:
Type in all cases: functional, cell-based
769-P = assay: Cytotoxicity against human 769-P cells by MTT assay
[1] = Cytotoxicity against human BGC cells by MTT assay
KB = assay: Cytotoxicity against human KB cells by MTT assay
786-0 = assay: Cytotoxicity against human 786-0 cells by MTT assay
A-375 = assay: Cytotoxicity against human A375 cells by MTT assay

SMILES | IC50 (769-P) | IC50 [1] | IC50 (KB) | IC50 (786-0) | IC50 (A-375)
CCCCn1c2ccccc2c2cc(C(=O)N[C@@H](Cc3ccc(O)cc3)C(=O)OC)ncc21 | > 200 µM | > 200 µM | > 200 µM | > 200 µM | > 200 µM
CCOC(=O)[C@H](CCSC)NC(=O)c1cc2c3ccccc3n(Cc3ccccc3)c2cn1 | > 200 µM | > 200 µM | > 200 µM | > 200 µM | > 200 µM
CCOC(=O)[C@H](Cc1ccccc1)NC(=O)c1cc2c3ccccc3n(Cc3ccccc3)c2cn1 | > 200 µM | > 200 µM | > 200 µM | > 200 µM | > 200 µM
CC(C)[C@H](NC(=O)c1cc2c3ccccc3n(CCCc3ccccc3)c2cn1)C(=O)O | 78.3 µM | 139 µM | 106 µM | 84.6 µM | 58 µM
CSCC[C@H](NC(=O)c1cc2c3ccccc3n(CCCc3ccccc3)c2cn1)C(=O)O | 116 µM | 136 µM | 96.6 µM | 70 µM | 58.9 µM
CCCCn1c2ccccc2c2cc(C(=O)N[C@@H](C)C(=O)OC)ncc21 | 27.2 µM | > 200 µM | > 200 µM | > 200 µM | > 200 µM
CCCCn1c2ccccc2c2cc(C(=O)N[C@H](C(=O)OC)C(C)C)ncc21 | > 200 µM | > 200 µM | > 200 µM | > 200 µM | > 200 µM
COC(=O)[C@H](C)NC(=O)c1cc2c3ccccc3n(CCCc3ccccc3)c2cn1 | > 200 µM | 148 µM | > 200 µM | > 200 µM | > 200 µM
CCOC(=O)[C@@H](NC(=O)c1cc2c3ccccc3n(CCCc3ccccc3)c2cn1)C(C)C | > 200 µM | > 200 µM | > 200 µM | > 200 µM | > 200 µM
O=C(N[C@@H](Cc1ccccc1)C(=O)O)c1cc2c3ccccc3n(CCCc3ccccc3)c2cn1 | 8 µM | 76.1 µM | 38.8 µM | 52.7 µM | 33.8 µM
CCCCn1c2ccccc2c2cc(C(=O)N[C@@H](Cc3ccccc3)C(=O)OCC)[n+](Cc3ccccc3)cc21 | 19.2 µM | 21.4 µM | 11.3 µM | 15 µM | 41.7 µM
CCOC(=O)[C@H](Cc1ccccc1)NC(=O)c1cc2c3ccccc3n(Cc3ccccc3)c2c[n+]1Cc1ccccc1 | 13.5 µM | 92.5 µM | 51.4 µM | 69.4 µM | 25.8 µM
CCOC(=O)[C@@H](NC(=O)c1cc2c3ccccc3n(CCCc3ccccc3)c2c[n+]1Cc1ccccc1)C(C)C | 14 µM | 17.8 µM | 12.5 µM | 4 µM | 10.4 µM
CCOC(=O)[C@H](CCSC)NC(=O)c1cc2c3ccccc3n(CCCc3ccccc3)c2c[n+]1Cc1ccccc1 | 7.6 µM | 12 µM | 9.4 µM | 10.1 µM | 7.3 µM
CCOC(=O)[C@H](Cc1ccccc1)NC(=O)c1cc2c3ccccc3n(CCCc3ccccc3)c2c[n+]1Cc1ccccc1 | 22.9 µM | 23.7 µM | 18.2 µM | 23.4 µM | 21.3 µM
CCCCn1c2ccccc2c2cc(C(=O)N[C@H](C(=O)OCC)C(C)C)[n+](Cc3ccccc3)cc21 | 13.7 µM | 44.2 µM | 28.4 µM | 14.4 µM | 22.5 µM

SMILES | IC50 (769-P) | IC50 [1] | IC50 (KB) | IC50 (786-0) | IC50 (A-375)
CCCCn1c2ccccc2c2cc(C(=O)N[C@@H](CCSC)C(=O)OCC)[n+](Cc3ccccc3)cc21 | 7.5 µM | 13.4 µM | 10.8 µM | 1.7 µM | 8.2 µM
CCOC(=O)[C@@H](NC(=O)c1cc2c3ccccc3n(Cc3ccccc3)c2c[n+]1Cc1ccccc1)C(C)C | 12.5 µM | 21.9 µM | 25.3 µM | 10.8 µM | 15.8 µM
CCCCn1c2ccccc2c2cc(C(=O)N[C@@H](CCSC)C(=O)O)ncc21 | 105 µM | > 200 µM | > 200 µM | > 200 µM | > 200 µM
CCCCn1c2ccccc2c2cc(C(=O)N[C@@H](Cc3ccccc3)C(=O)O)ncc21 | 114 µM | > 200 µM | 155 µM | 191 µM | 160 µM
CCCCn1c2ccccc2c2cc(C(=O)N[C@@H](Cc3ccc(O)cc3)C(=O)O)ncc21 | > 200 µM | > 200 µM | > 200 µM | > 200 µM | 121 µM
CSCC[C@H](NC(=O)c1cc2c3ccccc3n(Cc3ccccc3)c2cn1)C(=O)O | 145 µM | > 200 µM | 135 µM | > 200 µM | 156 µM
CCCCn1c2ccccc2c2cc(C(=O)N[C@@H](CCSC)C(=O)OCC)ncc21 | > 200 µM | > 200 µM | > 200 µM | > 200 µM | > 200 µM
CCCCn1c2ccccc2c2cc(C(=O)N[C@@H](Cc3ccccc3)C(=O)OC)ncc21 | > 200 µM | > 200 µM | > 200 µM | > 200 µM | > 200 µM
CCCCn1c2ccccc2c2cc(C(=O)N[C@@H](CCSC)C(=O)OCC)nc(C)c21 | > 200 µM | > 200 µM | > 200 µM | > 200 µM | > 200 µM
CCCCn1c2ccccc2c2cc(C(=O)N[C@@H](Cc3ccccc3)C(=O)OCC)nc(C)c21 | > 200 µM | > 200 µM | > 200 µM | > 200 µM | > 200 µM
C[C@H](NC(=O)c1cc2c3ccccc3n(CCCc3ccccc3)c2cn1)C(=O)O | 120 µM | 162 µM | 179 µM | 78.3 µM | 96.3 µM
CCOC(=O)[C@H](CCSC)NC(=O)c1cc2c3ccccc3n(CCCc3ccccc3)c2cn1 | > 200 µM | > 200 µM | 176 µM | > 200 µM | > 200 µM
CCOC(=O)[C@H](Cc1ccccc1)NC(=O)c1cc2c3ccccc3n(CCCc3ccccc3)c2cn1 | 187 µM | > 200 µM | 89.2 µM | > 200 µM | > 200 µM
CCCCn1c2ccccc2c2cc(C(=O)N[C@@H](Cc3ccccc3)C(=O)OCC)ncc21 | 32.5 µM | > 200 µM | 113 µM | > 200 µM | > 200 µM
CC(=O)O[C@H]1C(=O)[C@@]2(C)[C@H]([C@H](OC(=O)c3ccccc3)[C@]3(O)C[C@H](OC(=O)[C@H](O)[C@@H](NC(=O)c4ccccc4)c4ccccc4)C(C)=C1C3(C)C)[C@]1(OC(C)=O)CO[C@@H]1C[C@@H]2O [PACLITAXEL] | 7.1 µM | 1.5 µM | 0.08 µM | < 0.08 µM | 0.81 µM

Source: ChEMBL document CHEMBL1157050, “Synthesis and cytotoxic evaluation of N2-benzylated quaternary beta-carboline amino acid ester conjugates” (Eur J Med Chem, 2010)
